{"source": "paper PMC10510381", "about": "“Alkyne as a Latent Warhead to Covalently Target SARS-CoV-2 Main Protease” (Journal of Medicinal Chemistry, 2023)", "biological_target": "C145A mutant of M^pro (Severe acute respiratory syndrome coronavirus 2, UniProt P0DTD1, C3408A)", "type": "cell-based, SARS-CoV-2"}
{"smiles": "C#CC[C@H](NC(=O)C(F)(F)F)C(=O)N1C[C@H]2[C@@H]([C@H]1C(=O)N[C@H](C#C)C[C@@H]1CCNC1=O)C2(C)C", "note": "[Alk-4d, O=C1NCC[C@H]1C[C@@H](C#C)NC([C@H]2N(C([C@@H](NC(C(F)(F)F)=O)CC#C)=O)C[C@H]3[C@@H]2C3(C)C)=O]", "values": [{"measurement": "labeling of C145A mutant of M^pro in cells", "value": "no labeling"}]}
